# Results as given in US9421356B2, “Transdermal methods and systems for the delivery of corticosteroid compounds” (priority 2007, dated 2016).
# Read-outs that look alike come from different tables or passages of the source.
# Experiments:
# [1] = Systemic delivery study: plasma pharmacokinetics after iontophoretic patch or subcutaneous injection; format: in vivo, domestic swine; settings: subcutaneous 6 mg; for Cmax / half-life / AUC(0-t): pig, sc; for half-life: read-out: t½ (converted)
# Source text: The purpose of the study was to determine the systemic plasma exposure, absorption characteristics and elimination characteristics of the active agent Dexamethasone sodium phosphate, (DexP) when administered from either a subcutaneous injection or an iontophoretic patch in domestic swine.
# The patch is an active (iontophoretic) drug delivery patch which employs a low-level electrical field produced by a novel power source incorporated into the patch to “drive” the drug into the body in a pain-free manner. This system has advantages over passive patches, including more rapid and controlled delivery and the ability to deliver a wider variety of drugs.
# The study entailed administration of DexP from three concurrently applied patches delivered at 150 μA, 225 μA and 300 μA over a 9 hour period in 1 male and 1 female domestic swine. Each patch contained a 10 mg/ml Dexamethasone sodium phosphate gel (2% HPMC) in the donor cell compartment, and a 0.9% saline gel (2% HPMC) in the return cell compartment. As a comparator, a subcutaneous 6 mg dose of DexP was delivered to 1 male and 1 female domestic swine. All animals were implanted with a central venous access port (Hickman catheter) prior to administration of the drug and plasma samples were obtained pre-dosing and up to 24 hours after dosing. Samples were analyzed for the presence of dexamethasone phosphate and the data tabulated and selected pharmacokinetic parameters were calculated.
# [2] = iontophoresis of 4 mg/ml solution, charge dosage 40-80 mA-minutes, cited from earlier work
# [3] = in vivo, female swine (animal 8P168)
# [4] = in vivo, male swine (animal 8P167)
Compound,"Cmax [1, 3] [ng/mL]","half-life [1, 3] [h]","Cmax [1, 4] [ng/mL]","AUC(0-t) ([1]; in vivo, male swine (animal 8P167), read-out: AUC(0-12)) [ng·h/mL]","half-life [1, 4] [h]","AUC(0-t) ([1]; plasma, female swine, read-out: AUC(0-14)) [ng·h/mL]",AUC(0-12) ([1]; female swine (animal 8P168)) [ng·h/mL],amount of dexamethasone delivered (highest estimate) ([2]; J Pharm Compounding 2003) [milligrams],amount of dexamethasone delivered (lowest estimate) ([2]; Petelenz 1992) [micrograms]
"C[C@@H]1C[C@H]2[C@@H]3CCC4=CC(=O)C=C[C@]4(C)[C@@]3(F)[C@@H](O)C[C@]2(C)[C@@]1(O)C(=O)COP(=O)(O)O [DexP, Dexamethasone sodium phosphate]",27.3,1.5,28.4,36.4,0.85,60.5,60.5,,
C[C@@H]1C[C@H]2[C@@H]3CCC4=CC(=O)C=C[C@]4(C)[C@@]3(F)[C@@H](O)C[C@]2(C)[C@@]1(O)C(=O)CO [dexamethasone],,,,,,,,1.4,10
